Laboratory results: patent publication US5250283A, “Organic contrast agent analog and method of making same” (priority 1992, dated 1993)
Like-named read-outs stand apart in the source and are kept apart here.

Tests used:
[1] = Tissue distribution 90 min after i.v. TFA-IOP (100 umol/kg) or IOP (100 in text, 104 umol/kg in tables) in rats; assay type: in vivo; conditions: rat; for concentration at 1.5 h: 100 umol/kg; for concentration at 1.5 h / uMoles per gram tissue / uMoles per kg / Percentage of dose in tissue: i.v.; for Percentage of dose in tissue: Table 6; for tissue uptake at 1.5 h: read-out: Percentage of dose per gram
Description: No standard curves were compiled for these tissues. The values given
represent concentrations generated using the LIVER analysis routine and
standard curve. Because this routine utilizes a control LIVER spectra for
background modeling, erroneous Iodine concentration values for these
tissues may result due to inappropriate background removal.

[2] = Urinary excretion after i.v. IOP or TFA-IOP in rats; assay type: in vivo; conditions: rat
[3] = Plasma concentration after i.v. IOP or TFA-IOP in rats; assay type: in vivo; conditions: plasma, iv, 100 umol/kg, rat
[4] = Biliary excretion and bile flow after i.v. TFA-IOP (100 umol/kg) or IOP (100 in text, 104 umol/kg in tables) in rats; conditions: for Percentage of dose per kg. body wt.: rat bile; for Percentage of dose per kg. body wt. / Bile flow / Bile flow per kg b.w. / Bile flow per kg l.w.: i.v.
Description: Tissues examined included liver, spleen, upper GI, lower GI, kidney, lung and heart. The length of each study was 90 minutes, during which time bile, urine and plasma samples were taken to monitor uptake and excretion. NMR relaxation rates for liver and plasma were also examined to note whether uptake of either compound might possible alter these parameters.

CCC(Cc1c(I)cc(I)c(N)c1I)C(=O)O (centres unmarked) [IOP, iopanoic acid, reference compound]
concentration at 1.5 h ([1]; heart, iv, 90 min, liver standard curve used, may be erroneous, read-out: Heart concentration): 259 µM | uMoles per gram tissue ([1]; 90 min, heart): .26 uMOLES per gram | uMoles per kg ([1]; 90 min, heart): 259.38 uMOLES per kg | Percentage of dose in tissue ([1]; 90 min, heart): .72 PERCENTAGE OF DOSE | uMoles per gram tissue ([1]; 90 min, kidney): .11 uMOLES per gram | uMoles per kg ([1]; 90 min, kidney): 105.40 uMOLES per kg | Percentage of dose in tissue ([1]; 90 min, kidney): .69 PERCENTAGE OF DOSE | uMoles per gram tissue ([1]; 90 min, liver): .51 uMOLES per gram | uMoles per kg ([1]; 90 min, liver): 511.90 uMOLES per kg | Percentage of dose in tissue ([1]; 90 min, liver): 14.52 PERCENTAGE OF DOSE | uMoles per gram tissue ([1]; 90 min, lower GI): .14 uMOLES per gram | uMoles per kg ([1]; 90 min, lower GI): 135.23 uMOLES per kg | Percentage of dose in tissue ([1]; 90 min, lower GI): .59 PERCENTAGE OF DOSE | uMoles per gram tissue ([1]; 90 min, lung): .32 uMOLES per gram | uMoles per kg ([1]; 90 min, lung): 324.91 uMOLES per kg | Percentage of dose in tissue ([1]; 90 min, lung): 1.21 PERCENTAGE OF DOSE | uMoles per gram tissue ([1]; 90 min, spleen): .26 uMOLES per gram | uMoles per kg ([1]; 90 min, spleen): 255.54 uMOLES per kg | Percentage of dose in tissue ([1]; 90 min, spleen): .45 PERCENTAGE OF DOSE | uMoles per gram tissue ([1]; 90 min, upper GI): .31 uMOLES per gram | uMoles per kg ([1]; 90 min, upper GI): 307.91 uMOLES per kg | Percentage of dose in tissue ([1]; 90 min, upper GI): 1.31 PERCENTAGE OF DOSE | % of dose in heart ([1]; in vivo, iv, 90 min): 0.72% | % of dose in kidney ([1]; in vivo, iv, 90 min): 0.69% | % of dose in liver ([1]; in vivo, iv, 90 min): 14.53% | % of dose in lower GI ([1]; in vivo, iv, 90 min): 0.59% | % of dose in lung ([1]; in vivo, iv, 90 min): 1.21% | % of dose in spleen ([1]; in vivo, iv, 90 min): 0.45% | % of dose in upper GI ([1]; in vivo, iv, 90 min): 1.31% | tissue uptake at 1.5 h ([1]; in vivo, iv, 90 min, heart): 0.61 %ID/g | tissue uptake at 1.5 h ([1]; in vivo, iv, 90 min, kidney): 0.25 %ID/g | tissue uptake at 1.5 h ([1]; in vivo, iv, 90 min, liver): 1.21 %ID/g | tissue uptake at 1.5 h ([1]; in vivo, iv, 90 min, lower GI): 0.32 %ID/g | tissue uptake at 1.5 h ([1]; in vivo, iv, 90 min, lung): 0.77 %ID/g | tissue uptake at 1.5 h ([1]; in vivo, iv, 90 min, spleen): 0.61 %ID/g | tissue uptake at 1.5 h ([1]; in vivo, iv, 90 min, upper GI): 0.73 %ID/g | concentration at 1.5 h ([1]; kidney, iv, 90 min post injection, read-out: Kidney concentration): 105 µM | concentration at 1.5 h ([1]; kidney, iv, 90 min post injection, read-out: kidney concentration): 105 µM | concentration at 1.5 h ([1]; liver, iv, 90 min post injection, read-out: Liver concentration): 512 µM | concentration at 1.5 h ([1]; liver, iv, 90 min post injection, read-out: liver concentration): 512 µM | concentration at 1.5 h ([1]; lower gi, iv, 90 min, liver standard curve used, may be erroneous, read-out: Lower GI concentration): 135 µM | concentration at 1.5 h ([1]; lung, iv, 90 min, liver standard curve used, may be erroneous, read-out: Lung concentration): 325 µM | concentration at 1.5 h ([1]; spleen, iv, 90 min, liver standard curve used, may be erroneous, read-out: Spleen concentration): 256 µM | concentration at 1.5 h ([1]; upper gi, iv, 90 min, liver standard curve used, may be erroneous, read-out: Upper GI concentration): 308 µM | Urine concentration ([2]; 0-20 min): 0 µM | Urine concentration ([2]; 20-40 min): 0 µM | Urine concentration ([2]; 40-60 min): 0 µM | Urine concentration ([2]; 60-80 min): 0 µM | Urine concentration ([2]; 80-90 min): 0 µM | concentration at 0.5 h ([3]; 30 min): 557 µM | concentration at 50 min ([3]; 50 min): 508 µM | concentration at 1 h ([3]; 60 min): 462 µM | concentration at 70 min ([3]; 70 min): 462 µM | concentration at 80 min ([3]; 80 min): 404 µM | concentration at 1.5 h ([3]; 90 min): 373 µM | Percentage of dose per kg. body wt. ([4]; 0-10 min): 1.29 PERCENTAGE OF DOSE per kg. bod | Percentage of dose per kg. body wt. ([4]; 10-20 min): 4.38 PERCENTAGE OF DOSE per kg. bod | Percentage of dose per kg. body wt. ([4]; 20-30 min): 6.60 PERCENTAGE OF DOSE per kg. bod | Percentage of dose per kg. body wt. ([4]; 30-40 min): 5.61 PERCENTAGE OF DOSE per kg. bod | Percentage of dose per kg. body wt. ([4]; 40-50 min): 6.55 PERCENTAGE OF DOSE per kg. bod | Percentage of dose per kg. body wt. ([4]; 50-60 min): 3.86 PERCENTAGE OF DOSE per kg. bod | Percentage of dose per kg. body wt. ([4]; 60-70 min): 4.71 PERCENTAGE OF DOSE per kg. bod | Percentage of dose per kg. body wt. ([4]; 70-80 min): 4.61 PERCENTAGE OF DOSE per kg. bod | Percentage of dose per kg. body wt. ([4]; 80-90 min): 5.45 PERCENTAGE OF DOSE per kg. bod | Cmax at 1.5 h ([4]; rat, bile, iv, 100 umol/kg): 10000 µM | concentration at 5 min ([4]; rat, bile, iv, 100 umol/kg): 1610 µM | concentration at 10 min ([4]; rat, bile, iv, 100 umol/kg): 1610 µM | concentration at 0.25 h ([4]; rat, bile, iv, 100 umol/kg): 8660 µM | concentration at 20 min ([4]; rat, bile, iv, 100 umol/kg): 8660 µM | concentration at 25 min ([4]; rat, bile, iv, 100 umol/kg): 10500 µM | concentration at 0.5 h ([4]; rat, bile, iv, 100 umol/kg): 10500 µM | concentration at 35 min ([4]; rat, bile, iv, 100 umol/kg): 9850 µM | concentration at 40 min ([4]; rat, bile, iv, 100 umol/kg): 9850 µM | concentration at 50 min ([4]; rat, bile, iv, 100 umol/kg): 9670 µM | concentration at 55 min ([4]; rat, bile, iv, 100 umol/kg): 7320 µM | concentration at 1 h ([4]; rat, bile, iv, 100 umol/kg): 7320 µM | concentration at 65 min ([4]; rat, bile, iv, 100 umol/kg): 7530 µM | concentration at 70 min ([4]; rat, bile, iv, 100 umol/kg): 7530 µM | concentration at 1.25 h ([4]; rat, bile, iv, 100 umol/kg): 7760 µM | concentration at 80 min ([4]; rat, bile, iv, 100 umol/kg): 7760 µM | concentration at 85 min ([4]; rat, bile, iv, 100 umol/kg): 9560 µM | concentration at 1.5 h ([4]; rat, bile, iv, 100 umol/kg): 9560 µM | dose excreted at 1.5 h ([4]; rat, bile, iv, 100 umol/kg): 18% | Bile flow ([4]; rat, 0-10 min): .01375 mL/min | Bile flow per kg b.w. ([4]; rat, 0-10 min): .03386 ml/min per kg b.w. | Bile flow per kg l.w. ([4]; rat, 0-10 min): 1.147 ml/min per kg l.w. | Bile flow ([4]; rat, 10-20 min): .00867 mL/min | Bile flow per kg b.w. ([4]; rat, 10-20 min): .02136 ml/min per kg b.w. | Bile flow per kg l.w. ([4]; rat, 10-20 min): .72404 ml/min per kg l.w. | Bile flow ([4]; rat, 20-30 min): .01077 mL/min | Bile flow per kg b.w. ([4]; rat, 20-30 min): .02652 ml/min per kg b.w. | Bile flow per kg l.w. ([4]; rat, 20-30 min): .89866 ml/min per kg l.w. | Bile flow ([4]; rat, 30-40 min): .00977 mL/min | Bile flow per kg b.w. ([4]; rat, 30-40 min): .02406 ml/min per kg b.w. | Bile flow per kg l.w. ([4]; rat, 30-40 min): .81528 ml/min per kg l.w. | Bile flow ([4]; rat, 40-50 min): .01161 mL/min | Bile flow per kg b.w. ([4]; rat, 40-50 min): .02861 ml/min per kg b.w. | Bile flow per kg l.w. ([4]; rat, 40-50 min): .96953 ml/min per kg l.w. | Bile flow ([4]; rat, 50-60 min): .00904 mL/min | Bile flow per kg b.w. ([4]; rat, 50-60 min): .02225 ml/min per kg b.w. | Bile flow per kg l.w. ([4]; rat, 50-60 min): .75417 ml/min per kg l.w. | Bile flow ([4]; rat, 60-70 min): .01072 mL/min | Bile flow per kg b.w. ([4]; rat, 60-70 min): .02640 ml/min per kg b.w. | Bile flow per kg l.w. ([4]; rat, 60-70 min): .89457 ml/min per kg l.w. | Bile flow ([4]; rat, 70-80 min): .01018 mL/min | Bile flow per kg b.w. ([4]; rat, 70-80 min): .02506 ml/min per kg b.w. | Bile flow per kg l.w. ([4]; rat, 70-80 min): .84942 ml/min per kg l.w. | Bile flow ([4]; rat, 80-90 min): .00977 mL/min | Bile flow per kg b.w. ([4]; rat, 80-90 min): .02407 ml/min per kg b.w. | Bile flow per kg l.w. ([4]; rat, 80-90 min): .81586 ml/min per kg l.w. | dose excreted at 10 min ([4]; rat, in vivo, iv, 100 umol/kg, Percentage of dose in bile sample, 0-10 min): 0.52% | dose excreted at 20 min ([4]; rat, in vivo, iv, 100 umol/kg, Percentage of dose in bile sample, 10-20 min): 1.78% | dose excreted at 0.5 h ([4]; rat, in vivo, iv, 100 umol/kg, Percentage of dose in bile sample, 20-30 min): 2.68% | dose excreted at 40 min ([4]; rat, in vivo, iv, 100 umol/kg, Percentage of dose in bile sample, 30-40 min): 2.28% | dose excreted at 50 min ([4]; rat, in vivo, iv, 100 umol/kg, Percentage of dose in bile sample, 40-50 min): 2.66% | dose excreted at 1 h ([4]; rat, in vivo, iv, 100 umol/kg, Percentage of dose in bile sample, 50-60 min): 1.57% | dose excreted at 70 min ([4]; rat, in vivo, iv, 100 umol/kg, Percentage of dose in bile sample, 60-70 min): 1.91% | dose excreted at 80 min ([4]; rat, in vivo, iv, 100 umol/kg, Percentage of dose in bile sample, 70-80 min): 1.87% | dose excreted at 1.5 h ([4]; rat, in vivo, iv, 100 umol/kg, Percentage of dose in bile sample, 80-90 min): 2.21% | dose excreted at 10 min ([4]; rat, in vivo, iv, 100 umol/kg, Percentage of dose running total in bile, through 0-10 min): 0.52% | dose excreted at 20 min ([4]; rat, in vivo, iv, 100 umol/kg, Percentage of dose running total in bile, through 10-20 min): 2.3% | dose excreted at 0.5 h ([4]; rat, in vivo, iv, 100 umol/kg, Percentage of dose running total in bile, through 20-30 min): 4.98% | dose excreted at 40 min ([4]; rat, in vivo, iv, 100 umol/kg, Percentage of dose running total in bile, through 30-40 min): 7.26% | dose excreted at 50 min ([4]; rat, in vivo, iv, 100 umol/kg, Percentage of dose running total in bile, through 40-50 min): 9.92% | dose excreted at 1 h ([4]; rat, in vivo, iv, 100 umol/kg, Percentage of dose running total in bile, through 50-60 min): 11.5% | dose excreted at 70 min ([4]; rat, in vivo, iv, 100 umol/kg, Percentage of dose running total in bile, through 60-70 min): 13.4% | dose excreted at 80 min ([4]; rat, in vivo, iv, 100 umol/kg, Percentage of dose running total in bile, through 70-80 min): 15.3% | dose excreted at 1.5 h ([4]; rat, in vivo, iv, 100 umol/kg, Percentage of dose running total in bile, through 80-90 min): 17.5%
